14 molecules from patent publication EP4768484A1, “HETEROCYCLIC FUSED RING COMPOUND, AND COMPOSITION AND USE THEREOF” (Shenzhen TargetRx, Inc., priority 2023, dated 2025) can be followed below.

Holding throughout (format): cell-based
The target in one experiment is T1, Ba/F3 BCR-ABL1 WT (Homo sapiens, UniProt P00519+P11274).
T1 construct: BCR (N-terminal fusion partner of the oncoprotein); expressed in transfected cells; host or cells: Ba/F3 (lentiviral transduction, monoclonal line)
Kind of experiment: Cell growth inhibitory activity assay (CellTiter-Glo), Ba/F3 BCR-ABL1 WT cells. The conditions noted are these: 72 h, CTG cell viability. The protocol: (§1) In this assay, the Celltiter-Glo (CTG) kit provided by Promega was used, and it is a homogeneous cell viability assay method. The cell viability of cultured cells was measured by quantifying ATP. K562 cells were purchased from Nanjing Kebai, product number CBP60529; Ba/F3 parental cells were purchased from RIKEN BRC, product number RCB0805; other cells containing BCR-ABL1 WT, BCR-ABL1 T315I, BCR-ABL1 T315M, BCR-ABL1 Y253H/E255K, BCR-ABL1 E255V/T3151, BCR-ABL1 A424T, BCR-ABL1 A337V, BCR-ABL1 P465S, BCR-ABL1 V468F, and BCR-ABL1 I502L were all monoclonal engineered cell lines obtained by transducting Ba/F3 parental cells with the lentivirus plasmids containing WT or corresponding mutated BCR-ABL1.
(§2) The steps of cell viability assay are as follows: • a) Cells in logarithmic growth phase were collected. Cell suspension was prepared and the cells were counted. Concentration of the cells was calculated. • b) The cell suspension was diluted to the required concentration and then added to the middle wells of a 96-well plate, and PBS was added to the edge wells. The wells with no cells and only culture medium were used as blank controls. • c) In addition to the cell plate used for compound analysis, another 96-well plate was prepared as a T0 plate, and 3-6 blank wells and 3-6 cell wells were added. The next day, CTG was used to test the cell viability as the T0 viability value of the cells. • d) The cell plate was incubated at 37 °C in a 5% CO2 incubator overnight. • e) The next day, each concentration of a compound subjected to a gradient dilution was added, and the cell plate was incubated at 37 °C in a 5% CO2 incubator for 72 h. The wells with no compound and only 0.5% DMSO were used as positive controls for cell growth. • f) CTG reagent (CellTiter-Glo kit) was added according to the manufacturer's instructions to test the cell viability value. • g) The plate was read using Biotek cytation3.0 microplate reader and the data were exported. • h) IC50 was calculated using GraphPad Prism 7.0 software.
(§3) The IC50 (half-maximal inhibitory concentration) of the compound was obtained using the following nonlinear fitting formula: Y = Bottom + (Top−Bottom)/(1+10^(∧)((LogIC50−X)*HillSlope)) [formula] • X: Log value of the compound concentration • Y: Inhibition rate (% inhibition) • Top: Maximum response • Bottom: Baseline response • HillSlope: Slope of the curve
(§4) The formula for calculating cell inhibition rate (inhibition rate %) was: [formula]
Background: ATP-based viability assays read luminescence as a measure of living cells.

In the next experiment the test system is K562 cells. Description: Cell growth inhibitory activity assay (CellTiter-Glo), K562 cells. The conditions noted are these: Homo sapiens, 72 h, CTG cell viability. The protocol: as §1, §2, §3, §4
The next experiment addresses T2, Ba/F3 BCR-ABL1 T315I (Homo sapiens, UniProt P00519+P11274, T315I).
T2 construct: BCR (N-terminal fusion partner of the oncoprotein); expressed in transfected cells; host or cells: Ba/F3 (lentiviral transduction, monoclonal line)
Description: Cell growth inhibitory activity assay (CellTiter-Glo), Ba/F3 BCR-ABL1 T315I cells. The following applies: 72 h, CTG cell viability. The protocol: as §1, §2, §3, §4

Another experiment concerns Ba/F3 parental cells. Description: Cell growth inhibitory activity assay (CellTiter-Glo), Ba/F3 parental cells. The conditions noted are these: Mus musculus, BaF3, 72 h, CTG cell viability, read-out: IC50 Ba/F3 BCR-ABL1 Parental. The protocol:
as §1, §2, §3, §4

Consider `CC(=O)NC1CCC2c3cc(C(=O)Nc4ccc(OC(F)(F)Cl)cc4)cc(-c4cnccn4)c3N(C(C)C)C12` (racemic) [T-12, 3-acetamido-N-(4-(chlorodifluoromethoxy)phenyl)-4-isopropyl-5-(pyrazin-2-yl)-1,2,3,3a,4,8b-hexahydrocyclopenta[b]indole-7-carboxamide], for which the IC50 is 5 to 50 nM against Ba/F3 BCR-ABL1 WT, 5 to 50 nM in the experiment on K562 cells, 50 to 1000 nM against Ba/F3 BCR-ABL1 T315I and above 1000 nM with Ba/F3 parental cells.

Consider `O=C(Nc1ccc(OC(F)(F)Cl)cc1)c1cnc(N2CC[C@@H](F)C2)c(-c2cnc3c(c2)-c2n[nH]cc2C3)c1` [T-1, (R)-N-(4-(chlorodifluoromethoxy)phenyl)-5-(2,4-dihydropyrazolo[3',4':3,4]cyclopenta[1,2-b]pyridin-7-yl)-6-(3-fluoropyrrolidin-1-yl)nicotinamide], for which the IC50 on Ba/F3 BCR-ABL1 WT is at most 5 nM; in the experiment on K562 cells, at most 5 nM; against Ba/F3 BCR-ABL1 T315I, at most 5 nM; in the experiment on Ba/F3 parental cells, above 1000 nM.

For `O=C(Nc1ccc(OC(F)(F)Cl)cc1)c1cnc(N2CC[C@@H](F)C2)c(-c2cnc3c(c2)-c2nn(-c4ncccn4)cc2C3)c1` [T-5, (R)-N-(4-(chlorodifluoromethoxy)phenyl)-6-(3-fluoropvrrolidin-1-yl)-5-(2-(pyrimidin-2-yl)-2,4-dihydropyrazolo[3',4':3,4]cyclopenta[1,2-b]pyridin-7-yl)nicotinamide], the IC50 is at most 5 nM against Ba/F3 BCR-ABL1 WT, at most 5 nM with K562 cells, at most 5 nM at Ba/F3 BCR-ABL1 T315I and above 1000 nM in the experiment on Ba/F3 parental cells.

On to `O=C(Nc1ccc(OC(F)(F)Cl)cc1)c1cnc(N2CC[C@@H](F)C2)c(-c2cnc3c(c2)-c2nn(-c4ncc(F)cn4)cc2C3)c1` [T-6-A, (R)-N-(4-(chlorodifluoromethoxy)phenyl)-5-(2-(5-fluoropyrimidin-2-yl)-2,4-dihydropyrazolo[3',4':3,4]cyclopenta[1,2-b]pyridin-7-yl)-6-(3-fluoropyrrolidin-1-yl)nicotinamide], for which the IC50 against Ba/F3 BCR-ABL1 WT is at most 5 nM; in the experiment with K562 cells, at most 5 nM; on Ba/F3 BCR-ABL1 T315I it was at most 5 nM; with Ba/F3 parental cells, above 1000 nM.

With `O=C(Nc1ccc(OC(F)(F)Cl)cc1)c1cnc(N2CC[C@@H](F)C2)c(-c2cnc3c(c2)-c2c(cnn2-c2ncc(F)cn2)C3)c1` [T-6-B, (R)-N-(4-(chlorodifluoromethoxy)phenyl)-5-(1-(5-fluoropyrimidin-2-yl)-1,4-dihydropyrazolo[3',4':3,4]cyclopenta[1,2-b]pyridin-7-yl)-6-(3-fluoropyrrolidin-1-yl)nicotinamide], the IC50 against Ba/F3 BCR-ABL1 WT was at most 5 nM; in the experiment on K562 cells, at most 5 nM; against Ba/F3 BCR-ABL1 T315I it was 5 to 50 nM; in the experiment on Ba/F3 parental cells it was above 1000 nM.

For the molecule `C[C@@H]1COCc2nc3cc(C(=O)Nc4ccc(OC(F)(F)Cl)cc4)cc(-c4cnc5c(c4)-c4nn(C(F)F)cc4C5)c3n21` [T-51, (R)-N-(4-(chlorodifluoromethoxy)phenyl)-6-(2-(difluoromethyl)-2,4-dihydropyrazolo[3',4':3,4]cyclopenta[1,2-b]pyridin-7-yl)-4-methyl-3,4-dihydro-1H-benzo[4,5]imidazo[2,1-c][1,4]oxazine-8-carboxamide], the IC50 on Ba/F3 BCR-ABL1 WT is 5 to 50 nM; with K562 cells, at most 5 nM; with Ba/F3 parental cells it was above 1000 nM.

Take `[2H]C1([2H])c2cn(-c3ncccn3)nc2-c2cc(-c3cc(C(=O)Nc4ccc(OC(F)(F)Cl)cc4)cc4nc5n(c34)[C@H](C)COC5)cnc21` [T-105, (R)-N-(4-(chlorodifluoromethoxy)phenyl)-4-methyl-6-(2-(pyrimidin-2-yl)-2,4-dihydropyrazolo[3',4':3,4]cyclopenta[1,2-b]pyridin-7-yl-4,4-d2)-3,4-dihydro-1H-benzo[4,5]imidazo[2,1-c][1,4]oxazine-8-carboxamide]: the IC50 against Ba/F3 BCR-ABL1 WT, with K562 cells and against Ba/F3 BCR-ABL1 T315I was at most 5 nM throughout.

In the case of `C[C@@H]1COCc2nc3cc(C(=O)Nc4ccc(OC(F)(F)Cl)cc4)cc(-c4cnc5c(c4)-c4nn(-c6ncccn6)cc4C5O)c3n21` (stereo partly drawn) [T-106, (4R)-N-(4-(chlorodifluoromethoxy)phenyl)-6-(4-hydroxy-2-(pyrimidin-2-yl)-2,4-dihydropyrazolo[3',4':3,4]cyclopenta[1,2-b]pyridin-7-yl)-4-methyl-3,4-dihydro-1H-benzo[4,5]imidazo[2,1-c][1,4]oxazine-8-carboxamide], the IC50 at Ba/F3 BCR-ABL1 WT, with K562 cells and at Ba/F3 BCR-ABL1 T315I was at most 5 nM each time.

Take `C[C@@H]1COCc2nc3cc(C(=O)Nc4ccc(OC(F)(F)Cl)cc4)cc(-c4cnc5c(c4)-c4nn(-c6ncccn6)cc4C5F)c3n21` (stereo partly drawn) [T-107, (4R)-N-(4-(chlorodifluoromethoxy)phenyl)-6-(4-fluoro-2-(pyrimidin-2-yl)-2,4-dihydropyrazolo[3',4':3,4]cyclopenta[1,2-b]pyridin-7-yl)-4-methyl-3,4-dihydro-1H-benzo[4,5]imidazo[2,1-c][1,4]oxazine-8-carboxamide]: the IC50 against Ba/F3 BCR-ABL1 WT, with K562 cells and on Ba/F3 BCR-ABL1 T315I was at most 5 nM throughout.

As for `Cn1ccc(-c2ccnc(-n3cc4c(n3)-c3cc(-c5cc(C(=O)Nc6ccc(OC(F)(F)Cl)cc6)cc6c5C5(CCCCC5)C(=O)N6)cnc3C4)n2)n1` [T-138, N-(4-(chlorodifluoromethoxy)phenyl)-4'-(2-(4-(1-methyl-1H-pyrazol-3-yl)pyrimidin-2-yl)-2,4-dihydropyrazolo[3',4':3,4]cyclopenta[1,2-b]pyridin-7-yl)-2'-oxospiro[cyclohexane-1,3'-indoline]-6'-carboxamide], the IC50 against Ba/F3 BCR-ABL1 WT, in the experiment on K562 cells and at Ba/F3 BCR-ABL1 T315I was at most 5 nM throughout.

As for `O=C(Nc1ccc(OC(F)(F)Cl)cc1)c1cc2c(c(-c3cnc4c(c3)-c3nn(-c5nccc(-c6ccc(F)nc6)n5)cc3C4)c1)C1(CCCCC1)C(=O)N2` [T-139, N-(4-(chlorodifluoromethoxy)phenyl)-4'-(2-(4-(6-fluoropyridin-3-yl)pyrimidin-2-yl)-2,4-dihydropyrazolo[3',4':3,4]cyclopenta[1,2-b]pyridin-7-yl)-2'-oxospiro[cyclohexane-1,3'-indoline]-6'-carboxamide], the IC50 against Ba/F3 BCR-ABL1 WT, in the experiment with K562 cells and against Ba/F3 BCR-ABL1 T315I was at most 5 nM each time.

As to `O=C(Nc1ccc(OC(F)(F)Cl)cc1)c1cc2c(c(-c3cnc4c(c3)-c3nn(-c5nccc(-c6cncc(F)c6)n5)cc3C4)c1)C1(CCCCC1)C(=O)N2` [T-140, N-(4-(chlorodifluoromethoxy)phenyl)-4'-(2-(4-(5-fluoropyridin-3-yl)pyrimidin-2-yl)-2,4-dihydropyrazolo[3',4':3,4]cyclopenta[1,2-b]pyridin-7-yl)-2'-oxospiro[cyclohexane-1,3'-indoline]-6'-carboxamide], the IC50 against Ba/F3 BCR-ABL1 WT, with K562 cells and on Ba/F3 BCR-ABL1 T315I was at most 5 nM each time.

Take `O=C(Nc1ccc(OC(F)(F)Cl)cc1)c1cnc(N2CC[C@@H](F)C2)c(-c2cnc3c(c2)-c2nn(-c4nccc(-c5ccc(F)nc5)n4)cc2C3)c1` [T-141, (R)-N-(4-(chlorodifluoromethoxy)phenyl)-5-(2-(4-(6-fluoropyridin-3-yl)pyrimidin-2-yl)-2,4-dihydropyrazolo[3',4':3,4]cyclopenta[1,2-b]pyridin-7-yl)-6-(3--fluoropyrrolidin-1-yl)nicotinamide]: the IC50 at Ba/F3 BCR-ABL1 WT, with K562 cells and against Ba/F3 BCR-ABL1 T315I was at most 5 nM each time.

For `O=C(Nc1ccc(OC(F)(F)Cl)cc1)c1cnc(N2CC[C@@H](F)C2)c(-c2cnc3c(c2)-c2nn(-c4nccc(-c5cncc(F)c5)n4)cc2C3)c1` [T-142, (R)-N-(4-(chlorodifluoromethoxy)phenyl)-5-(2-(4-(5-fluoropyridin-3-yl)pyrimidin-2-yl)-2,4-dihydropyrazolo[3',4':3,4]cyclopenta[1,2-b]pyridin-7-yl)-6-(3-fluoropyrrolidin-1-yl)nicotinamide], the IC50 on Ba/F3 BCR-ABL1 WT, in the experiment on K562 cells and against Ba/F3 BCR-ABL1 T315I was at most 5 nM throughout.
